Like-named read-outs stand apart in the source and are kept apart here.
Assays:
[1] = test system: influenza; conditions: cited from earlier work
[2] = test system: SARS-CoV-2; format: in vivo, Syrian hamsters
[3] = female Syrian hamsters, lung homogenates 96 hours after infection, 50,000 KIU/kg intravenously 2 times a day for 4 days, Lip-APR = composition 2
[4] = male Syrian hamsters, lung homogenates 96 hours after infection, 50,000 KIU/kg intravenously 2 times a day for 4 days, Lip-APR = composition 2
[5] = male and female Syrian hamsters pooled, lung homogenates, 10,000 KIU/ml, 50,000 KIU/kg intravenously

Q: With aprotinin as the substance, how does the “Reduction in viral load compared with patients treated with Ingavirin” value ([1]; APR aerosol, patients) read?
A: The value was “approximately 10 fold”.

Q: And the “Side effects and discomfort” value ([1]; patients of the APR group)?
A: Its value is “not identified”.

Q: What about the “Duration of clinical symptoms, shorter than in the Ingavirin group” value ([1]; rhinorrhea, weakness, headache, sore throat, cough, chest pain, fever) of the same substance?
A: Its value is 1 to 2 days.

Q: And the “Infectious titer lg (TCID50/mL) ± SD” value [2, 3]?
A: The value was 4.38±0.85 lg (TCID50/mL).

Q: What about the “Viral load Ct ± SD” value [2, 3] of the same substance?
A: Its value is 17.51±1.04 Ct.

Q: And the “Anti-SARS-CoV-2/COVID-19 efficacy (in words)” value ([2]; intravenous, 50,000 KIU/kg, versus untreated control)?
A: Its value is “no antiviral activity”.

Q: What about the “Infectious titer lg (TCID50/mL) ± SD” value [2, 4] of the same substance?
A: Its value is 3.88±0.48 lg (TCID50/mL).

Q: And the “Viral load Ct ± SD” value [2, 4]?
A: The value was 17.51±1.28 Ct.

Q: What about the “Infectious titer lg (TCID50/mL) ± SD” value [2, 5] of the same substance?
A: The value was 4.13±0.69 lg (TCID50/mL).

Q: And the “Viral load Ct ± SD” value [2, 5]?
A: Its value is 17.72±1.10 Ct.

Source: US20250032598A1, “Compounds, Pharmaceuticals, Formulations, and Methods for Treating and Preventing RNA Virus Infections and Associated Diseases” (ASAVI LLC, priority 2023, published 2025)
